Assay results as given in ChEMBL document CHEMBL1201862, “PubChem BioAssay data set” (2004).
Values belong to the molecule of their own block, whether it stands above or below them. Calls of active or inactive are those of the source.

Legend:
[1] = target: Cytochrome P450 2D6 (Homo sapiens, UniProt P10635);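 further: CYP2D6 member of a cytochrome P450 panel assay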
[2] = target: FAD-linked sulfhydryl oxidase ALR (Homo sapiens, UniProt P55789); assay: inhibitors of human ALR sulfhydryl oxidase, dose response, biochemical, H2O2 detection, luminescence, cherry-pick (AID 493248)
[3] = target: Cytochrome P450 2C9 (Homo sapiens, UniProt P11712)
[4] = test system: HeLa; assay: HeLa cell cytotoxicity, dose response, cytotoxicity control for MITF activator project, CellTiter-Glo luminescence, cherry-pick samples (AID 540259); type: functional, cell-based; settings: Homo sapiens
[5] = target: T1, Rac GTPase-activating protein 1 (Homo sapiens, UniProt Q9H0H5); assay: MgcRacGAP GTPase-activating activity inhibitors, confirmation, biochemical, ADP Hunter fluorescence, primary and confirmatory (AID 624330); type: functional
T1 sequence (Q9H0H5 whole entry): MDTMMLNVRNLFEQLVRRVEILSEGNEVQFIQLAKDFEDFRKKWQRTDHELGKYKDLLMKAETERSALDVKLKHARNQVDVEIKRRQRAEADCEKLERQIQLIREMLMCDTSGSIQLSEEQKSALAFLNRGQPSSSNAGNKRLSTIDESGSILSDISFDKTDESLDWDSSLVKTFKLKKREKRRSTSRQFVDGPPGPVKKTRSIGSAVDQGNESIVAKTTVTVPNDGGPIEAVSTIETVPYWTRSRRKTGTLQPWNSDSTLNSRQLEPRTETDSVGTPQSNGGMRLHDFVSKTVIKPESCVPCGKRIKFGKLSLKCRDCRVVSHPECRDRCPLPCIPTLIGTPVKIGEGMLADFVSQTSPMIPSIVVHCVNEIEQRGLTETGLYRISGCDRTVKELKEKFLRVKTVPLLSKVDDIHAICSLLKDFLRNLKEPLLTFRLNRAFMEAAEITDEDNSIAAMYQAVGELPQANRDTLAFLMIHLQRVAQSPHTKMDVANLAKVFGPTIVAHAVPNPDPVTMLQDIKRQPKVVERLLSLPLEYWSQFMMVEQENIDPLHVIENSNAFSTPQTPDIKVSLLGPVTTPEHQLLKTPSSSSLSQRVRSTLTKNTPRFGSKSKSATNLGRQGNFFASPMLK

[6] = target: Glucose-6-phosphate 1-dehydrogenase (Homo sapiens, UniProt P11413); assay: human G6PD enzyme inhibitors, dose response, selectivity assay for P. falciparum G6PD inhibitor project, biochemical, fluorescence (AID 504792); type: functional
[7] = test system: Escherichia coli; assay: microbe, parasite or virus in culture
[8] = target: T2, Leucine aminopeptidase (Plasmodium falciparum 3D7, UniProt Q8IL11); assay: P. falciparum M17LAP inhibitors, primary screen, biochemical, fluorogenic H-Leu-NHMec substrate, 1536-well (AID 1619); type: functional
T2 sequence (Q8IL11 whole entry): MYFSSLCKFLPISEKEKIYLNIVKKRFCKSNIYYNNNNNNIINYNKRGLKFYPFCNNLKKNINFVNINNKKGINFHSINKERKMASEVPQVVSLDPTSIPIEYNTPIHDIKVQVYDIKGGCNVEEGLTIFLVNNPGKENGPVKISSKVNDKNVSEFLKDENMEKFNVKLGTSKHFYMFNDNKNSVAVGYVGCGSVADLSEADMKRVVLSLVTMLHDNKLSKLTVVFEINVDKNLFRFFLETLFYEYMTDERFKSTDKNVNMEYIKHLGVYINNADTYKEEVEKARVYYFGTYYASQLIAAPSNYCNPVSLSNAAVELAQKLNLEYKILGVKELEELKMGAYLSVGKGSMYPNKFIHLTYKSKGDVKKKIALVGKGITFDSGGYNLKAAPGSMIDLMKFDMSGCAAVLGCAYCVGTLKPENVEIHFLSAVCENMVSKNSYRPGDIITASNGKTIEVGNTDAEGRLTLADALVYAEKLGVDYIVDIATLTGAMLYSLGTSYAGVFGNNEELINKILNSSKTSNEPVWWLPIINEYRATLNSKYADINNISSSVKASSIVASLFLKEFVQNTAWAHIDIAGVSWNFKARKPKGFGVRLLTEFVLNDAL

[9] = target: T3, Phosphomannomutase 2 (Homo sapiens, UniProt O15305); assay: Counter screen SAR assay for PMM2 inhibitors via a fluorescence intensity assay. [Related pubchem assays (depositor defined):AID1545, AID1574]
T3 sequence (O15305 whole entry): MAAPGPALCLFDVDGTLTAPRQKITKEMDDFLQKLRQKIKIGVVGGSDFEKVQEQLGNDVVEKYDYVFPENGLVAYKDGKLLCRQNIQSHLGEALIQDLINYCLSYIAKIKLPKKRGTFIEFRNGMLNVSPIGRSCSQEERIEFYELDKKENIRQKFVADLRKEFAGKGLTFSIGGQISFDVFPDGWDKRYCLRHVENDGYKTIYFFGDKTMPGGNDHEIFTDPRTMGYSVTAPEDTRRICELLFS

[10] = target: T4, Mannose-6-phosphate isomerase (Homo sapiens, UniProt P34949); assay: PMI enzyme inhibitors, confirmation, biochemical, fluorescence intensity (AID 1535)
T4 sequence (P34949 whole entry): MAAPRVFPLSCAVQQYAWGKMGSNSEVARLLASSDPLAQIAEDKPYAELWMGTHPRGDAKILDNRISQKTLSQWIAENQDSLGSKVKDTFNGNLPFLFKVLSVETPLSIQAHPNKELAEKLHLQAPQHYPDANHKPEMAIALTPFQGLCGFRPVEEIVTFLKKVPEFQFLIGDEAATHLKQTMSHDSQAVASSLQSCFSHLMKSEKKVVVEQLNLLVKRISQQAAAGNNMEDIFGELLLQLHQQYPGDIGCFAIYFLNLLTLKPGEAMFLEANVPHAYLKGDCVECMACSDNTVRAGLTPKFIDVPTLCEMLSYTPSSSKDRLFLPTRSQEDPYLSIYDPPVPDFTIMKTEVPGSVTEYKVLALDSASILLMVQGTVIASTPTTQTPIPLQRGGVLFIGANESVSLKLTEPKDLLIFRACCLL

[11] = target: T4, Mannose-6-phosphate isomerase; assay: inhibitors of human PMI, primary screen, biochemical, fluorescence intensity, coupled assay (AID 1209)
[12] = target: T5, High affinity choline transporter 1 (Homo sapiens, UniProt Q9GZV3); assay: CHT inhibitors, dose response, cell-based, 5-point CRC, membrane potential dye (AID 504840); type: functional
T5 sequence (Q9GZV3 whole entry): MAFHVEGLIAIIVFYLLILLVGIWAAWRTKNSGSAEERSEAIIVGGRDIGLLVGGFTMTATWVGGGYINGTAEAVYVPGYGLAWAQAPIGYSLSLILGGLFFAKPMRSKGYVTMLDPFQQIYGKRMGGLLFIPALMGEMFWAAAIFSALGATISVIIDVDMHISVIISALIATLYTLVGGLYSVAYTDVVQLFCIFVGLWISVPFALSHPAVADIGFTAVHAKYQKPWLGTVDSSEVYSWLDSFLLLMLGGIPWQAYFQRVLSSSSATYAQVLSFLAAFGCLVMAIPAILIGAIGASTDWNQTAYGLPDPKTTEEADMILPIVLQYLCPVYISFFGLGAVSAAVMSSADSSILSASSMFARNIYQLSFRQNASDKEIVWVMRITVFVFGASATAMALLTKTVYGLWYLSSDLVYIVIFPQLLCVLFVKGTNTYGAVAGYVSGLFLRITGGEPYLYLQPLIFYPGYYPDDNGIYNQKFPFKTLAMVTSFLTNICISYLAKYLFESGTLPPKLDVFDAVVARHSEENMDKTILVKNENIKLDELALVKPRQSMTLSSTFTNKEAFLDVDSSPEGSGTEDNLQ

Chain of Glucose-6-phosphate 1-dehydrogenase (P11413 whole entry): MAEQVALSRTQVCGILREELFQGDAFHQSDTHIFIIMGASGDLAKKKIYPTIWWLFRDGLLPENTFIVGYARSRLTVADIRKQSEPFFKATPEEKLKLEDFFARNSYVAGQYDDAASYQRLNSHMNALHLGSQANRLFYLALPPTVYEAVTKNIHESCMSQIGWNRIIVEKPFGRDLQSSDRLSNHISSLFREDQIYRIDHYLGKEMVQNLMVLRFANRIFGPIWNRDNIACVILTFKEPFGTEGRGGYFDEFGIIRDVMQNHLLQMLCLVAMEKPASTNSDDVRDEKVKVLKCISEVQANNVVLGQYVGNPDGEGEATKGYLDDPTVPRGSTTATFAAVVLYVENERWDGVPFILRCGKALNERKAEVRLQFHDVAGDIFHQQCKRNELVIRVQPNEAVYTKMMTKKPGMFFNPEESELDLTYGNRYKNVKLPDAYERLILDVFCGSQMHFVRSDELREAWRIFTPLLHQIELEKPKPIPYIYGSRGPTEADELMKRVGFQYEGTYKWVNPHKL
Chain of Cytochrome P450 2D6 (P10635 whole entry): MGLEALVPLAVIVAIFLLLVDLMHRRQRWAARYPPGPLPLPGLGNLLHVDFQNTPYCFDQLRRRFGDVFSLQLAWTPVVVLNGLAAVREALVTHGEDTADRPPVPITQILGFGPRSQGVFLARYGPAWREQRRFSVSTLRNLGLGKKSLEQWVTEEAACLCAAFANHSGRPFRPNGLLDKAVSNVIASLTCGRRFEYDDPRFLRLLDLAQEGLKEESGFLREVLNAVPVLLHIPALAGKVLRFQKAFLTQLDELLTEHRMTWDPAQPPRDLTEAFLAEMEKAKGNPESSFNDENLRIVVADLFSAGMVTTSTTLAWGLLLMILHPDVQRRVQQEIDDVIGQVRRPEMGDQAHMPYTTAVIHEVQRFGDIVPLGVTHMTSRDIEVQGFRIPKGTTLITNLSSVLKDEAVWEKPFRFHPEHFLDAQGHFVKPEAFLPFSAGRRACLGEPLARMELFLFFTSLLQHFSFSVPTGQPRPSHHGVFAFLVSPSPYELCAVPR
Chain of Cytochrome P450 2C9 (P11712 whole entry): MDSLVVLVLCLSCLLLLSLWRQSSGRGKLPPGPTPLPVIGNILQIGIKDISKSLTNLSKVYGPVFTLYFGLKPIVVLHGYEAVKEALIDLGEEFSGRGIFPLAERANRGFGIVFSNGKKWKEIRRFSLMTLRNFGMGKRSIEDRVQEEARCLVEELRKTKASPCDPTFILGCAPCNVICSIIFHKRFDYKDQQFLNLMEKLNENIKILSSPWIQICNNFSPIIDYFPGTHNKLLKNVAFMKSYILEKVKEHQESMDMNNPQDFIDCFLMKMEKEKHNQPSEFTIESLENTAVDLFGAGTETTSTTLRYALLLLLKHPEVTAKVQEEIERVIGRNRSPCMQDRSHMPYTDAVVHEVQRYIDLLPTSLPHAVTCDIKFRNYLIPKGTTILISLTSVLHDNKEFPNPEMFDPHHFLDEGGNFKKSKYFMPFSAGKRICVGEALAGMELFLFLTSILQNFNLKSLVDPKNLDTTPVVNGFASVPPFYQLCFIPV
Chain of FAD-linked sulfhydryl oxidase ALR (P55789 whole entry): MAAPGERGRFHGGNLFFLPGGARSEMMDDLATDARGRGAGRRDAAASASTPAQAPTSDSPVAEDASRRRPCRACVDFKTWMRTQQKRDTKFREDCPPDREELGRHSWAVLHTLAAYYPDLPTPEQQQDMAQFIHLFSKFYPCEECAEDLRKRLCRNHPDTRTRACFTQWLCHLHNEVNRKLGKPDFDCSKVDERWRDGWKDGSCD

SMILES: O=C(NCCc1ccc(O)cc1)c1ccc(Cl)cc1
AC50 [1]: 25.1 µM (inconclusive)
AC50 [2]: 6.24 µM (active)
AC50 [3]: inconclusive
AC50 [4]: 99 µM (active)

IC50 [5]: 46.5 µM (active)
IC50 [6]: 42.1 µM (inactive)
SMILES: O=C1CCN(c2ccccc2)N1 [PHENIDONE]

SMILES: COc1cc(-c2nnc3n2N=C(c2ccccc2)CS3)cc(OC)c1OC
IC50 [6]: > 80 µM (inactive)

SMILES: Cc1ccc(O)c(C(=O)c2coc(=N)c(C(=O)NC(C)C)c2)c1
AC50 [7]: 23.8 µM (active)
IC50 [8]: 4.66 µM (active)

IC50 [9]: > 100 µM (inactive)
IC50 [10]: > 50 µM (inactive)
IC50 [11]: 6.08 µM (active)
IC50 [8]: 46 µM (active)
IC50 [12]: 13.2 µM (active)
SMILES: CC(C)(C)c1ccc(C(=O)CSc2nnc[nH]2)cc1

SMILES: CCCC(=O)Nc1ccc(NC(=O)c2ccccn2)cn1
AC50 [7]: 58.3 µM (active)
